Laboratory results taken from patent publication US20250025438A1, “Derivative of aspartic acid and use thereof in treatment of metabolic diseases such as hepatic fibrosis and non-alcoholic hepatitis” (SHENZHEN JINGTAI TECHNOLOGY CO., LTD., priority 2021, published 2025).
Structures can show the parent of a compound that is named as a salt. Where a SMILES comes first, the peptide text is derived from it.

Key:
[1] = Pharmacokinetic testing in rats; format: in vivo, SD rats; conditions: male, SD, rat, plasma, PO 20 mg/kg
Procedure: Rats were used as test animals to study the pharmacokinetic behavior of the following compounds in rat plasma.
The drugs were self-made according to the examples of the present invention.
SD rats, 6-8 weeks old, 3 for each administration method/example, male.
The animals were fasted overnight, ate food 8 hours after taking the drug, and drank water freely.
Blood was collected before administration and at 5 min, 15 min, 30 min, 1 hr, 2 hr, 4 hr, 8 hr and 24 hr after administration.
The blood was placed on wet ice and centrifuged to obtain plasma sample (2000 g, 5 min at 4° C.).
The LC-MS/MS method was used to determine the blood drug concentration. The HPLC conditions were: mobile phase A: H2O-0.5% FA; mobile phase B: ACN-0.5% FA;
WinNonlin 8.2 non-compartmental model was used to estimate pharmacokinetic parameters (PK parameters, including but not limited to peak concentration (Cmax), time to peak (Tmax), terminal elimination rate (Ke), terminal elimination half-life (T1/2), area under drug-time curve (AUC), clearance rate (CL), apparent volume of distribution (Vd), mean residence time (MRT), bioavailability (F), etc.).

COL1A1 = assay: In vitro efficacy in semi-activated LX2 cells, qPCR: COL1A1; format: cell-based; conditions: 48 hours, Q-PCR; for inhibition at 50 µM: LX-2, 50 µM
COL1A2 [2] = assay: In vitro efficacy in semi-activated LX2 cells, qPCR: COL1A2; format: cell-based; conditions: Q-PCR; for inhibition at 50 µM: Homo sapiens, LX-2, 48 hours, read-out: COL1A2 mRNA inhibition rate
Procedure: (§1) Test compounds were added to the LX-2 cells respectively, and total RNA in the cells was extracted 48 hours later. This experiment was performed strictly in accordance with the instructions of the Total RNA Kit. The steps were as follows (note: this experiment was performed on ice throughout the entire process, and special RNase-free tips were used throughout the entire process): • 1) The 12-well cell culture plate was taken out from the incubator, the cell culture medium was discarded, the cells were washed twice with 1 mL of 1×PBS, and a negative pressure suction device was used to fully remove PBS; • 2) 350 μL of TRK Lysis Buffer mixture/well was prepared as needed (mixture preparation method: 1 mL of TRKLysis Buffer+20 μL of β-mercaptoethanol), vortexed and mixed well. 350 μL was added to each well of the 12-well cell culture plate, and allowed to stand at room temperature for 5 minutes to fully lyse the cells; • 3) 70% ethanol/well was prepared as needed, vortexed and mixed well. 350 μL was added to each well of the 12-well cell culture plate, mixed well by shaking, and transferred to the spin column (spin column+collection tube were assembled); • 4) Centrifugation was performed at 4° C., 12000 g for 60 sec. The waste liquid was discarded after centrifugation, while the spin column was kept; • 5) 500 μL of RNA Wash Buffer I was added, centrifuged at 4° C., 12000 g for 60 sec, the waste liquid was discarded after centrifugation, and the collection column was kept; • 6) 500 μL of RNA Wash Buffer II (confirmed that ethanol had been added) was added, centrifuged at 4° C., 12000 g for 60 sec, the waste liquid was discarded after centrifugation, and the collection column was kept; • 7) step 6) was repeated once again, centrifugation was performed at 4° C., 12000 g for 90 sec, the waste liquid was discarded after centrifugation, and the collection column was kept; • 8) Centrifugation was performed at 4° C., 12000 g for 120 sec to ensure that the spin column was fully dried; • 9) The dried spin column was inserted into a new 1.5 mL EP tube, and 30 μL of DEPC water was added to the membrane in the center of the spin column. It should be careful not to touch the EP tube cover in this step. It was allowed to stand at room temperature for 5 minutes to ensure that the RNA was fully dissolved in DEPC water. Centrifugation was performed at 4° C., 12000 g for 60 sec, and the EP tube was kept; • 10) NanoDrop ultra-micro-volume spectrophotometer was used to detect RNA concentration;
(§2) 5.2 Reverse transcription of RNA into cDNA: According to the instructions of PrimeScript™ RT reagent Kit (Perfect Real Time), the specific experimental steps were as follows:
(§3) 5.3 Q-PCR detection of target gene expression: According to the instructions of Power SYBR® Green PCR Master Mix, the specific operations were as follows:
(§4) After the reaction was completed, the amplification curve and dissolution curve of Q-PCR were confirmed, and the relative quantification method ([…]) was used to perform data analysis on the experimental results.
(§5) LX2 cells were passaged and plated normally. After adherent growth for 12 hours, 50 µM of the test compound was added. After 48 hours, the cells were collected, total RNA was extracted, and Q-PCR was used to detect the changes in the mRNA expression levels of liver fibrosis-related genes (ACTA2 encoding α-SMA, COL1A1 and COLIA2 encoding collagen I, COL3A1 encoding collagen III, SMAD3 encoding Smad3) and inflammation-related genes (IL1β encoding IL-1β, TNFα encoding TNFα) (for specific methods, see 5. Q-PCR detection of target gene expression as described above). α-SMA was a marker of hepatic stellate cell activation, and collagen I and collagen III were the main components of extracellular matrix deposition.

COL3A1 = assay: In vitro efficacy in semi-activated LX2 cells, qPCR: COL3A1; format: cell-based; conditions: 48 hours, Q-PCR; for inhibition at 50 µM: LX-2, 50 µM
α-SMA [3] = assay: In vitro efficacy in semi-activated LX2 cells, qPCR: α-SMA; format: cell-based; conditions: 48 hours, Q-PCR
Procedure, shortened: (§6)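 Plate LX2 cells; after 12 h adherence add compound (50 µM); harvest at 48 h; extract total RNA on ice; make cDNA; run SYBR Green Q-PCR, check amplification and melt curves, analyse by relative quantification.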

Smad3 = assay: In vitro efficacy in semi-activated LX2 cells, qPCR: Smad3; format: cell-based; conditions: 48 hours, Q-PCR; for inhibition of the expression of Smad3 at the mRNA level: Table 2
Procedure, shortened: as §6

IL-1β = assay: In vitro efficacy in semi-activated LX2 cells, qPCR: IL-1β; format: cell-based; conditions: 48 hours, Q-PCR
Procedure: as §1, §2, §3, §4
as §5, with “After adherent growth for 12 hours, 50 µM of the test compound was added.” left out

TNF-α = assay: In vitro efficacy in semi-activated LX2 cells, qPCR: TNF-α; format: cell-based; conditions: Q-PCR; for inhibition at 50 µM: Homo sapiens, LX-2, 48 hours, read-out: TNF-α mRNA inhibition rate
Procedure: as §1, §2, §3, §4, §5

[4] = test system: collagen I and collagen III; assay: Semi-activated LX2 cells, qPCR: collagen I and collagen III at the mRNA level; format: cell-based; conditions: 48 hours, Q-PCR, Table 2
Procedure, shortened: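 LX-2 human hepatic stellate cells, adhered 12 h, were treated with 50 µM test compound for 48 h. Total RNA was extracted, and COL1A1, COL1A2 and COL3A1 mRNA were measured by SYBR Green qPCR.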

[5] = test system: liver fibrosis-related genes; assay: Semi-activated LX2 cells, qPCR: liver fibrosis-related genes overall; format: cell-based; conditions: 48 hours, Q-PCR, Table 2
Procedure: as §1, §3, §5

α-SMA [6] = assay: Semi-activated LX2 cells, Western blot: α-SMA protein; format: cell-based; conditions: 50-400 μM, 48 hours, FIG. 2, vs 50 μM aspartic acid
COL1A2 [7] = assay: In vitro efficacy in semi-activated LX2 cells, qPCR: COL1A2; format: cell-based; conditions: Homo sapiens, LX-2, test concentration 25 μM, 48 hours, Q-PCR, read-out: COL1A2 mRNA inhibition rate
FN = assay: Semi-activated LX2 cells, Western blot: FN protein; format: cell-based; conditions: 50-400 μM, 48 hours, FIG. 3, vs 50 μM aspartic acid
[8] = Homo sapiens, read-out: COL1A1 mRNA inhibition rate
[9] = Homo sapiens, read-out: COL3A1 mRNA inhibition rate

N[C@@H](CC(=O)O)C(=O)O [Aspartic acid, aspartic acid]
AUC(0-t) [1]: 26700 ng·h/mL | Tmax [1]: 24 h | Cmax ([1]; read-out: Cmax): 1960 ng/mL

CCOC(=O)C[C@H](N)C(=O)OCC.Cl [Compound 12]
COL1A1 mRNA inhibition rate (COL1A1; 50 µM): C (C represented that the inhibition rate was 25% to 50%) | COL1A2 mRNA inhibition rate (COL1A2 [2]; 50 µM, 48 hours): E (E represented that the inhibition rate was 1% to 10%) | COL3A1 mRNA inhibition rate (COL3A1; 50 µM): C (C represented that the inhibition rate was 25% to 50%) | α-SMA mRNA inhibition rate (α-SMA [3]; 50 µM): E (E represented that the inhibition rate was 1% to 10%) | Smad3 mRNA inhibition rate (Smad3; 50 µM): D (D represented that the inhibition rate was 10% to 25%) | inhibition of the expression of Smad3 at the mRNA level (Smad3): could inhibit | IL-1β mRNA inhibition rate (IL-1β; 50 µM): E (E represented that the inhibition rate was 1% to 10%) | TNF-α mRNA inhibition rate (TNF-α; 50 µM, 48 hours): D (D represented that the inhibition rate was 10% to 25%) | inhibition of the expression of collagen I and collagen III at the mRNA level [4]: could inhibit | inhibition of the mRNA expression levels of liver fibrosis-related genes (overall) [5]: stronger effects

COC(=O)[C@H](CC(=O)O)NC(=O)OC(C)(C)C [Compound 26]
inhibition at 50 µM (COL1A1; [8]): 25 to 50% | inhibition at 50 µM (COL1A2 [2]): 1 to 10% | inhibition at 50 µM (COL3A1; [9]): 25 to 50% | inhibition at 50 µM (α-SMA [3]; 50 µM, read-out: α-SMA mRNA inhibition rate): 10 to 25% | inhibition of the expression of α-SMA at the mRNA level (α-SMA [3]; Table 2): could inhibit | inhibition of the expression of Smad3 at the mRNA level (Smad3): could inhibit | inhibition at 50 µM (Smad3; Homo sapiens, LX-2, 50 µM, read-out: Smad3 mRNA inhibition rate): 10 to 25% | inhibition at 50 µM (TNF-α): 10 to 25% | inhibition of the expression of collagen I and collagen III at the mRNA level [4]: could inhibit | inhibition of the mRNA expression levels of liver fibrosis-related genes (overall) [5]: stronger effects

CC(C)(C)OC(=O)C[C@H](N)C(=O)OC(C)(C)C [Compound 41]
inhibition at 50 µM (COL3A1; [9]): 1 to 10% | inhibition at 50 µM (IL-1β; Homo sapiens, LX-2, 50 µM, read-out: IL-1β mRNA inhibition rate): 1 to 10% | inhibitory effect on α-SMA protein as compared to ASP (α-SMA [6]): stronger inhibitory effects

N[C@@H](CS(=O)O)C(=O)O [Compound 46]
inhibition at 25 µM (COL1A2 [7]): 1 to 10%

COC(=O)[C@H](Cc1ccccc1)NC(=O)[C@@H](N)CC(=O)O [Compound 48] (HELM PEPTIDE1{D.F.[CO[*:1]]}$$$$V2.0)
inhibition at 50 µM (COL1A1; [8]): 25 to 50% | inhibition at 50 µM (COL3A1; [9]): 10 to 25% | inhibition at 50 µM (TNF-α): 1 to 10% | inhibition of the expression of collagen I and collagen III at the mRNA level [4]: could inhibit | inhibition of the mRNA expression levels of liver fibrosis-related genes (overall) [5]: stronger effects | inhibitory effect on α-SMA protein as compared to ASP (α-SMA [6]): stronger inhibitory effects

CC(C)OC(=O)[C@@H](N)CC(=O)O [Compound 50, 1-isopropyl L-aspartic acid ester hydrochloride]
inhibition at 50 µM (COL1A1; [8]): 25 to 50% | inhibition at 50 µM (COL3A1; [9]): 1 to 10% | inhibition of the expression of collagen I and collagen III at the mRNA level [4]: could inhibit | inhibitory effect on FN protein expression as compared to ASP (FN): stronger inhibitory effects

CC(C)OC(=O)OCOC(=O)C[C@H](N)C(=O)O [Compound 52, 4-(((isopropoxycarbonyl)oxy)methyl) L-aspartic acid ester hydrochloride]
inhibition at 50 µM (COL1A1; [8]): 25 to 50% | inhibition at 50 µM (COL1A2 [2]): 1 to 10% | inhibition at 50 µM (COL3A1; [9]): 25 to 50% | inhibition of the expression of collagen I and collagen III at the mRNA level [4]: could inhibit | inhibition of the mRNA expression levels of liver fibrosis-related genes (overall) [5]: stronger effects | inhibitory effect on α-SMA protein as compared to ASP (α-SMA [6]): stronger inhibitory effects | inhibitory effect on FN protein expression as compared to ASP (FN): stronger inhibitory effects

N[C@@H](CC(=O)OCOC(=O)C[C@H](N)C(=O)O)C(=O)O [Compound 55, (2S,2'S)-4,4′-(methylenebis (oxy))bis (2-amino-4-oxobutyric acid) hydrochloride]
inhibition at 25 µM (COL1A1; Homo sapiens, LX-2, test concentration 25 μM, read-out: COL1A1 mRNA inhibition rate): 1 to 10% | inhibition at 25 µM (COL3A1; Homo sapiens, LX-2, test concentration 25 μM, read-out: COL3A1 mRNA inhibition rate): 1 to 10% | inhibition at 25 µM (α-SMA [3]; test concentration 25 μM, read-out: α-SMA mRNA inhibition rate): 1 to 10% | inhibition at 25 µM (IL-1β; Homo sapiens, LX-2, test concentration 25 μM, read-out: IL-1β mRNA inhibition rate): 1 to 10% | inhibition at 25 µM (COL1A2 [7]): 1 to 10%
